Experimental findings from PubChem BioAssay AID1465 (SRMLSC, 2008) are described below.

As usually defined, the EC50 is the concentration needed to bring the measured effect to its halfway point.

The test system of the assay is S. cerevisiae Yfh1-off respiration, WST-1 reduction, 72 h. The assay can be described thus: mitochondrial function rescue without frataxin homolog – Friedreich's ataxia, plus single-dose screen, dose response (AID 1465).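 Also: activators that raise dye reduction in frataxin-depleted yeast.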

As for `CCC(=O)NC(c1cccs1)c1cc(Cl)c2cccnc2c1O` (stereo not given), the concentration giving a half-maximal response (EC50) is 65.9 µM.

As for `NC(=S)n1[nH]c(-c2ccc([N+](=O)[O-])cc2)c(N=Nc2cccc([N+](=O)[O-])c2)c1=O`, the EC50 is 44.1 µM.

For the compound `CCOC(=O)c1c(C)oc2c1c(CN1CCN(CCO)CC1)c(O)c1ccccc12`, the concentration for a half-maximal effect (EC50) is 85 µM.

`CCC(=O)NC(c1ccc(OC)c(OC)c1)c1cc(Cl)c2cccnc2c1O` (stereo not given): the concentration giving a half-maximal response (EC50) is 29.2 µM.

As for `CC1=C(C)C(=O)C(CCCCC#CCCCC#CCO)=C(C)C1=O`, the 50% effective concentration (EC50) was 94.8 µM.

For the compound `CC1=CC(=Cc2sc3ccccc3[n+]2C)C=C(C)O1`, the concentration giving a half-maximal response (EC50) is 93.7 µM.

On to `CCN(CC)c1ccc(/C=N/NC(=O)c2cccc(S(=O)(=O)Nc3ccccc3OC)c2)c(O)c1`, for which the half-maximal effective concentration (EC50) is 75.4 µM.

Turning to `Cc1ccccc1C(=O)/C(C#N)=N/Nc1c(C)n(C)n(-c2ccccc2)c1=O`, the EC50 was 60 µM.

With `COC(=O)c1ccc(=O)c2nc3/c(=C/O)c(O)cc(=O)c3[nH]c12`, the concentration giving a half-maximal response (EC50) is 21.9 µM.

On to `O=C(Cn1nc(Cl)nc1Cl)c1cc2ccccc2oc1=O`, for which the EC50 is 72.6 µM.

As to `CCOC(=O)/C(C#N)=C\C=C1C=CN(C)C=C1`, the EC50 is 96 µM.

Regarding `CCOC(=O)C1=C(Cc2ccc(F)cc2)C(=O)c2ccccc2C1=O`, the EC50 was 36 µM.

As to `O=C(N/N=C/c1c(O)n(Cc2ccccc2)c(=O)c2ccccc12)c1cccnc1`, the 50% effective concentration (EC50) is 71.9 µM.

For `O=C1C(Cl)=C(Nc2ccccc2)C(=O)c2ccccc21`, the concentration for a half-maximal effect (EC50) was 67.6 µM.

Regarding `CCN1/C(=C\C=C(C(C)=O)C(C)=O)Sc2ccccc21`, the EC50 is 87.4 µM.

Take `c1ccc(-c2ccc(SCc3cccnc3)nn2)nc1`: the concentration for a half-maximal effect (EC50) is 42.5 µM.

For `CCCC(=O)NC(c1ccco1)c1cc([N+](=O)[O-])c2cccnc2c1O` (stereo not given), the EC50 was 55.2 µM.

As to `CCN1CCS/C1=C\C=C\C1=[N+](CC)CCS1`, the EC50 is 53.7 µM.

As for `Cc1oc2c(c1C(=O)c1ccccc1)C(=O)C(=O)c1ccccc1-2`, the half-maximal effective concentration (EC50) was 35.2 µM.

For the compound `Cc1c(N/N=C(\C#N)C(=O)c2ccc(Cl)cc2)c(=O)n(-c2ccccc2)n1C`, the EC50 was 21.5 µM.

In the case of `CCCC(=O)NC(c1cccs1)c1cc([N+](=O)[O-])c2cccnc2c1O` (stereo not given), the half-maximal effective concentration (EC50) is 20.9 µM.

On to `CC(=O)NC(c1ccc(C)cc1)c1cc([N+](=O)[O-])c2cccnc2c1O` (stereo not given), for which the concentration giving a half-maximal response (EC50) was 25 µM.

As for `CCC(=O)NC(c1ccc(OC)cc1)c1cc(Cl)c2cccnc2c1O` (stereo not given), the 50% effective concentration (EC50) is 38.2 µM.

On to `O=C(COc1ccc(Cl)cc1Cl)NNC(=S)Nc1ccc(F)cc1`, for which the concentration giving a half-maximal response (EC50) is 83.3 µM.

As to `COc1cc([N+](=O)[O-])cc(/C=N/NC(=O)c2cc(-c3ccccc3)nc3ccccc23)c1O`, the 50% effective concentration (EC50) is 35.2 µM.

Turning to `O=C(O)c1cccc2nc3ccccc3nc12`, the concentration giving a half-maximal response (EC50) is 47.6 µM.

`CCCCC(=O)NC(c1cccs1)c1cc(Cl)c2cccnc2c1O` (stereo not given): the concentration giving a half-maximal response (EC50) is 8.49 µM.

On to `O=[N+]([O-])c1ccc(Sc2cccc[n+]2[O-])c2nonc12`, for which the EC50 is 16.8 µM.

As to `Cn1cccc1/C=C1\SC(=S)N(CC(=O)O)C1=O`, the 50% effective concentration (EC50) was 92.2 µM.

On to `CCC(=O)NC(c1cccs1)c1cc([N+](=O)[O-])c2cccnc2c1O` (stereo not given), for which the EC50 is 34.4 µM.

Consider `COc1ccccc1N1CCN(Cc2ccc(O)c3ncccc23)CC1`, for which the EC50 was 43 µM.

`CCCCCC(=O)NNC(=S)NC(C)=O`: the concentration for a half-maximal effect (EC50) is 34.6 µM.

Turning to `COc1cc(/C=N/NC(=O)c2cncc(Br)c2)cc([N+](=O)[O-])c1O`, the EC50 is 58.1 µM.

For `CCC(C(=O)O)N1C(=O)/C(=C/c2cccn2C)SC1=S` (stereo not given), the EC50 was 96.7 µM.

For the compound `Oc1ccc(CN2CCC(Cc3ccccc3)CC2)c2cccnc12`, the 50% effective concentration (EC50) is 96.9 µM.

For `Cc1c(N/N=C(\C#N)C(=O)c2ccccc2)c(=O)n(-c2ccccc2)n1C`, the EC50 was 52 µM.

As to `CCC(=O)NC(c1ccc(C)cc1)c1cc([N+](=O)[O-])c2cccnc2c1O` (stereo not given), the EC50 was 24.7 µM.

With `O=C1NC(=O)C(=Cc2ccc(N3CCOCC3)o2)C(=O)N1`, the half-maximal effective concentration (EC50) was 96.6 µM.

`COc1ccccc1C(=O)NNC1=C(C(=O)C(F)(F)F)CCC1`: the 50% effective concentration (EC50) was 25.3 µM.

For `CN1/C(=C\C=C2C(=O)NC(=O)NC2=O)C(C)(C)c2ccccc21`, the 50% effective concentration (EC50) is 96.8 µM.

With `CC(=O)NC(c1cccs1)c1cc([N+](=O)[O-])c2cccnc2c1O` (stereo not given), the EC50 was 25.4 µM.

As for `O=C(C1=C(c2ccccc2)C(=O)c2ccccc2C1=O)c1ccccc1`, the concentration for a half-maximal effect (EC50) is 35.6 µM.

With `O=C(CCc1ccccc1)NC(c1cccs1)c1cc(Cl)c2cccnc2c1O` (stereo not given), the half-maximal effective concentration (EC50) is 7.44 µM.

Take `CC1=C(C)C(=O)C(N2CCOCC2)=CC1=O`: the concentration for a half-maximal effect (EC50) was 14.3 µM.

With `CCN1CCS/C1=C/C=C/C1=[N+](CC)CCS1`, the concentration giving a half-maximal response (EC50) was 56.3 µM.

Consider `Cc1ccc(NS(=O)(=O)c2cc([N+](=O)[O-])ccc2NNC(=S)Nc2cccc(Cl)c2)c(C)c1`, for which the concentration for a half-maximal effect (EC50) is 30.8 µM.

For `Cc1coc2c1C(=O)C(=O)c1c-2ccc2c(C)cccc12`, the concentration giving a half-maximal response (EC50) was 78.8 µM.

Turning to `CC1CC(=O)c2c(cc3c(-c4c(O)cc(O)c5c(O)c6c(cc45)OC(C)CC6=O)c(O)cc(O)c3c2O)O1` (stereo not given), the 50% effective concentration (EC50) is 75 µM.

On to `CC[n+]1c(C=C2C=C(C)OC(C)=C2)sc2ccccc21`, for which the EC50 was 83.8 µM.

As to `COc1ccc(Cn2c(O)c(/C=N/NC(=O)c3cccnc3)c3ccccc3c2=O)cc1`, the EC50 is 75.4 µM.

For the compound `O=C(O)c1cccc(NC(=S)N/N=C/c2ccccn2)c1`, the concentration for a half-maximal effect (EC50) was 78.1 µM.

For `Cc1cc(C(=O)N/N=C/c2ccc(O)c(O)c2O)c(C)n1-c1ccccc1`, the EC50 is 46 µM.

As for `CCCCC(=O)NC(c1ccccc1OC)c1ccc2cccnc2c1O` (stereo not given), the EC50 was 36.5 µM.

With `COc1ccc(C2=NN(c3nc4ccccc4s3)C(=O)C2)cc1`, the EC50 is 59.4 µM.

As for `O=C1C=C(NCc2ccccc2)c2ccccc2C1=O`, the concentration for a half-maximal effect (EC50) is 36.1 µM.

For the compound `O=[N+]([O-])c1cccc(/C=N/Nc2nc(NCc3ccccc3)nc(N3CCOCC3)n2)c1O`, the EC50 is 50.9 µM.

Turning to `O=C1c2ccccc2NC(c2ccc(-c3cccc(Cl)c3)o2)N1O` (stereo not given), the EC50 is 80 µM.

Regarding `CC1=CC(=O)c2ccccc2C1=O`, the concentration for a half-maximal effect (EC50) was 45.7 µM.

Regarding `O=C(NNC1=C(C(=O)C(F)(F)F)CCC1)c1ccc(Br)cc1`, the concentration giving a half-maximal response (EC50) is 59.8 µM.

Take `O=c1cc(-c2ccccc2)[nH]n1-c1nc2ccccc2s1`: the EC50 was 49.1 µM.
